Patent publication US10525079B2, “Pharmaceutical composition for preventing or treating breast cancer including crystalline polymorph of tetraarsenic hexoxide, and method for producing same” (CHEMAS CO., LTD., priority 2016, dated 2020)

Key:
[1] = system: human breast cancer cells, MDA-MB-231; experiment: Breast cancer metastasis inhibitory effect in nude mice transplanted with MDA-MB-231; type: in vivo, babl/c-nu male nude mice; details: MDA-MB-231 subcutaneous, oral 4.5 mg/kg for 7 days; for percentage of inhibition of cancer cell metastasis: cancer cells spread to the lungs counted; for spreading of the breast cancer cells to the lungs: versus untreated control
Protocol: The nude mice were allowed free access to food and water, and were bred in a 12-hr light/12-hr dark cycle for 7 days.
The mice were transplanted with human breast cancer cells, MDA-MB-231, through subcutaneous injection, and bred for 7 days. After 7 days, the mice were randomly divided, and then respective mice were orally administered with the compositions of Example 1 and Comparative Example 1 at 4.5 mg/kg for 7 days. Here, the mice treated with nothing after the transplantation of breast cancer cells were used as a control group. After 7 days of administration of the compositions, lung tissues were taken from the mice, and then cancer cells spread to the lungs were counted to compare the degree of inhibition of breast cancer metastasis.

[2] = system: cyclin E1; experiment: RT-PCR mRNA expression of cyclin E1 in MCF-7 cells; type: cell-based, human; details: 0-15 μM, 24 hours, with increase in concentration
Protocol: (§1) Fetal bovine serum (FBS) and cell culture medium were prepared (Hyclone). RT-PCR Kit and Trizol were obtained from Takara Biotechnology CO., LTD., and Annexin V-FITC was obtained from Shanghai Biyuntian Biological Technology Co., LTD. Primers were designed and synthesized by Beijing Aodingkangsheng Biological Technology Co., LTD.
(§2) Human breast cancer cells MCF-7, as a human cancer cell line, were obtained from the Shanghai Cell Bank of Chinese Academy of Sciences. MCF-7 cells were incubated in Minimum Essential media (MEM) supplemented with 10% FBS, 100 U/ml penicillin, and 100 μg/m streptomycin in a humidified incubator with 5% CO2 and 95% air. The media were exchanged every three days.
(§3) In order to investigate the effect of Example 1 on the induction of cell apoptosis, mRNA expression levels of caspase-3, p21, cyclin E1, and cyclin A2, which are genes involved in cell cycle and apoptosis, were examined by RT-PCR. The cells were dispensed at 1×10^5 cells/well in a 6-well culture dish, and incubated for 24 hours. After 24 hours, the cells contained in the MEM containing 10% FBS were treated with Example 1 at 0, 1, 3, 6, 9, 12 or 15 μM, and incubated for 24 hours. After 24 hours, the cells were collected, and then RNA was extracted using Trizol reagent. […]

[3] = system: cyclin A2; experiment: RT-PCR mRNA expression of cyclin A2 in MCF-7 cells; type: cell-based, human; details: 0-15 μM, 24 hours, with increase in concentration
Protocol: as §1, §2, §3

[4] = system: human breast cancer cells MCF-7; experiment: Induction of cell apoptosis by flow cytometry (Annexin V-FITC / PI); type: cell-based; details: MCF-7 cells, 0, 1, 3, 6, 9, 12 or 15 μM, 24 hours; with increase in treatment concentration
Protocol: as §1, §2
The effect of Example 1 on the induction of cell apoptosis was assessed by flow cytometry. The cells were dispensed at 1×10^5 cells/well in a 6-well culture dish, and incubated for 24 hours. After 24 hours, the cells contained in the MEM containing 10% FBS were treated with Example 1 at 0, 1, 3, 6, 9, 12 or 15 μM, and incubated for 24 hours. After 24 hours, the cells were treated using Annexin V-FITC kit to check cell apoptosis, and also treated with propidium iodide (PI) for distinguishment from natural cell death. […] The cells treated with the Annexin V-FITC kit were analyzed for the degree of cell apoptosis by using the BD FACS calibur flow cytometry system. […]

[5] = system: metastatic breast cancer; experiment: Clinical test in a patient with metastatic breast cancer (CT images of the lungs); type: in vivo, human; details: oral 5 mg three times a day (15 mg/day), after 8, 13, 17 and 22 months of administration
Protocol: The following clinical test was conducted using the composition of Example 1.
The patient received hospital treatments and folk remedies since breast cancer was found in 2006, but the breast cancer was metastasized to the lungs, pleura, bones, and liver. In May 2014, pleural effusion and peritoneal fluid collection were found, and thus the pleural effusion was extracted several times. However, due to a severe difficulty in breathing caused by malignant pleural effusion, the patient breathed through an oxygen respiratory system in an emergency room and hospice medical ward. However, the patient began to develop pallor due to a lack of oxygen, and the patient, having about one week left to live, was orally administered with 5 mg of Example 1 three times a day (15 mg/day).
CT images of the patient before the administration of Example 1 and after 8, 13, 17 and 22 months of administration of Example 1 are shown in FIG. 6. Before the administration of Example 1, the airway was closed due to metastasis to the right lung and left lung, but after 8, 13, 17, and 22 months of administration, the sizes of the cancers in both of the lungs were decreased as the duration of administration increased.

[6] = system: p21; experiment: RT-PCR mRNA expression of p21 in MCF-7 cells; type: cell-based, human; details: 0-15 μM, 24 hours, with increase in concentration
Protocol: as §1, §2, §3

[7] = system: human breast cancer cells SK-BR-3; experiment: Cell proliferation assay (MTT assay), SK-BR-3 cells; type: cell-based
Protocol: (§4) Fetal bovine serum (FBS) and cell culture medium were prepared (Hyclone), and dimethyl sulfoxide (DMSO) and 3-(4,5-dimetyl-thiazol-2yl)-2,5-diphenyltetrazolium bromide (MTT, Amresco LLC, USC) were prepared.
(§5) As human cancer cell lines, human breast cancer cells MCF-7 and SK-BR-3 were obtained from the Shanghai Cell Bank of Chinese Academy of Sciences. The MCF-7 cells were incubated in Minimum Essential Media (MEM) supplemented with 10% FBS, 100 U/ml penicillin, and 100 μg/ml streptomycin and the SK-BR-3 cells were incubated in Dulbecco's modified Eagle's medium (DMEM) supplemented with 10% FBS, 100 U/ml penicillin, and 100 μg/ml streptomycin in a humidified incubator with 5% CO2 and 95% air. The media were exchanged every three days.
(§6) The effects of Example 1 and Comparative Examples 1 to 3 on cell proliferation were assessed using MTT assay. MTT assay is based on the ability of viable cells against MTT to produce insoluble dark blue formazan products. After the cells were suspended in the medium by trypsin treatment and collected, the cells were dispensed at a density of 4×10^3 cells/well in a 96-well culture dish (Costar, Cambridge, Mass., USA). […] All the crystals were completely dissolved by standing at room temperature for 15 minutes, and the absorbance was measured using a micro-plate reader at a wavelength of 570 nm (A570 nm).
(§7) The absorbance value of the control group treated without the sample was calculated as 100, and the absorbance value of the treatment group treated with the sample, compared with that of the control group, was calibrated, and the percentage of inhibition of cell proliferation was calculated according to the following equation. Percentage (%) of inhibition of cell proliferation=((mean absorbance of control group cells−mean absorbance of treatment group cells)/mean absorbance of control group cells)×100
(§8) All data were expressed as mean±standard error of the mean (mean±SEM). […]

[8] = system: human breast cancer cells MCF-7; experiment: Cell proliferation assay (MTT assay), MCF-7 cells; type: cell-based
Protocol: as §4, §5, §6, §7, §8

[9] = system: caspase-3; experiment: RT-PCR mRNA expression of caspase-3 in MCF-7 cells; type: cell-based, human; details: 0-15 μM, 24 hours, with increase in concentration
Protocol: as §1, §2, §3

[10] = compared with Comparative Example 2 or 3 (Example 1 and Comparative Example 1 mixed at 4:1 or 1:1)

Row | Compound | percentage of inhibition of cancer cell metastasis [1] | spreading of the breast cancer cells to the lungs [1] | mRNA expression of cyclin E1 [2] | mRNA expression of cyclin A2 [3] | cell apoptosis (annexin V compared with PI) [4] | sizes of the cancers in both of the lungs (CT images) [5] | mRNA expression of p21 [6] | percentage of inhibition of SK-BR-3 cell proliferation [7, 10] | percentage of inhibition of SK-BR-3 cell proliferation ([7]; incubation 48 hours (FIG. 3A), compared with Comparative Example 1, 0-80 μM) | percentage of inhibition of SK-BR-3 cell proliferation ([7]; incubation 72 hours (FIG. 3B), compared with Comparative Example 1, 0-80 μM) | percentage of inhibition of MCF-7 cell proliferation [8, 10] | percentage of inhibition of MCF-7 cell proliferation ([8]; incubation 48 hours (FIG. 2A), compared with Comparative Example 1, 0-80 μM) | percentage of inhibition of MCF-7 cell proliferation ([8]; incubation 72 hours (FIG. 2B), compared with Comparative Example 1, 0-80 μM) | mRNA expression of caspase-3 [9]
1 | O1[As]2O[As]3O[As]1O[As](O2)O3 [Comparative Example 1, tetraarsenic hexoxide] | 50% | inhibited | – | – | – | – | – | – | – | – | – | – | – | –
2 | tetraarsenic hexoxide [Example 1] | ≥ 90% | inhibited | increased | decreased | increased | decreased | increased | higher | higher | higher | higher | higher | higher | increased
